Data published in PubChem BioAssay (NCI).
Values joined by “and” are separate entries in the source; they are usually repeats but may differ in a detail not shown here. Identical values can stand only once.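 Where inhibition never reached the appropriate level, the endpoint shown equals the highest concentration tested. Otherwise, values were interpolated linearly from a five-concentration, 48-hour dose response in 96-well plates. GI50 marks 50% less growth. TGI is the concentration that stops growth completely.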

Key:
Test in all cases: inhibition of tumour cell growth, NCI panel, 48 h
SK-MEL-5 melanoma = test system: SK-MEL-5 melanoma
COLO 205 colon = test system: COLO 205 colon
NCI-H226 lung = test system: NCI-H226 lung
KM12 colon = test system: KM12 colon
MALME-3M melanoma = test system: MALME-3M melanoma
SK-MEL-28 melanoma = test system: SK-MEL-28 melanoma
CCRF-CEM leukemia = test system: CCRF-CEM leukemia
DU-145 prostate = test system: DU-145 prostate
HL-60(TB) leukemia = test system: HL-60(TB) leukemia
SNB-75 CNS = test system: SNB-75 CNS

Structure (SMILES)	GI50 (SK-MEL-5 melanoma)	TGI (SK-MEL-5 melanoma)	GI50 (COLO 205 colon)	TGI (COLO 205 colon)	GI50 (NCI-H226 lung)	TGI (NCI-H226 lung)	GI50 (KM12 colon)	TGI (KM12 colon)	GI50 (MALME-3M melanoma)	TGI (MALME-3M melanoma)	GI50 (SK-MEL-28 melanoma)	TGI (SK-MEL-28 melanoma)	GI50 (CCRF-CEM leukemia)	TGI (CCRF-CEM leukemia)	GI50 (DU-145 prostate)	TGI (DU-145 prostate)	GI50 (HL-60(TB) leukemia)	TGI (HL-60(TB) leukemia)	GI50 (SNB-75 CNS)	TGI (SNB-75 CNS)
O=C(NC[C@H](O)CN1CCc2ccccc2C1)c1cc(NC2COC2)ncn1	11.4 µM	24.5 µM	13.4 µM	> 100 µM	9.88 µM	40.2 µM	16.2 µM	> 100 µM	14.1 µM	68.3 µM	31.6 µM	> 100 µM	26.9 µM	> 100 µM	18.3 µM	> 100 µM	20.3 µM	60.5 µM	12.5 µM	64.5 µM
NC(N)=N/N=C/c1c(Cl)cccc1Cl	14.6 µM	27.7 µM	17.2 µM	32.1 µM	24.1 µM	> 100 µM	19.9 µM	59.1 µM	16.2 µM	33.5 µM	17.6 µM	34.6 µM	28.5 µM	> 100 µM	23.1 µM	> 100 µM	21.8 µM	50.9 µM	16.7 µM	54.1 µM
O=C(Nc1cc(C(F)(F)F)cc(C(F)(F)F)c1)c1cc(Cl)ccc1O	0.0632 µM and 0.094 µM	0.206 µM and 0.257 µM	0.696 µM and 1.34 µM	2.34 µM and 3.22 µM	0.262 µM and 0.317 µM	0.992 µM and 1.59 µM	0.318 µM and 0.312 µM	1.14 µM and 1.12 µM	0.225 µM and 0.2 µM	1.16 µM and 0.668 µM	0.285 µM and 0.199 µM	1.84 µM and 1.31 µM	0.237 µM and 0.378 µM	1.3 µM and 7.79 µM	0.345 µM and 0.347 µM	> 5.23 µM and 10.8 µM	0.201 µM and 0.239 µM	1.69 µM and 0.641 µM	0.159 µM and 0.172 µM	0.586 µM
NC(N)=NCCCC(=O)O	–	> 100 µM	–	> 100 µM	–	> 100 µM	–	> 100 µM	–	> 100 µM	–	> 100 µM	–	> 100 µM	–	> 100 µM	–	> 100 µM	–	> 100 µM
CC1(C)OC2C(CO[Si](C)(C)C(C)(C)C)OC(n3c(I)c(C#C[Si](C)(C)C)c(=O)[nH]c3=O)C2O1 (stereo not given)	13.4 µM	26.2 µM	1.59 µM	2.94 µM	17 µM	34 µM	23.2 µM	92.7 µM	4.62 µM	18.6 µM	1.83 µM	3.56 µM	2.67 µM	11 µM	13 µM	25.6 µM	2.35 µM	15.2 µM	36.7 µM	> 100 µM
CCOc1ccc(/C=C2\N=C(c3ccc([N+](=O)[O-])cc3)OC2=O)cc1	–	> 100 µM	–	> 100 µM	–	> 100 µM	–	> 100 µM	–	> 100 µM	–	> 100 µM	–	> 100 µM	–	> 100 µM	–	> 100 µM	–	> 100 µM
CC(C)(/C=C(\C#N)C(=O)N1CCC[C@@H](n2nc(-c3ccc(Oc4ccccc4)cc3F)c3c(N)ncnc32)C1)N1CCN(C2COC2)CC1	3.96 µM	13.9 µM	5.71 µM	24.3 µM	4.3 µM	21.1 µM	3.34 µM	14 µM	6.07 µM	19.5 µM	9.71 µM	22 µM	5.69 µM	> 100 µM	12.3 µM	26.8 µM	5.28 µM	32.5 µM	5.98 µM	20.7 µM
CCN(CC)CCNc1nc(N)c(C#N)c(C#N)c1C#N	–	> 10 µM	–	> 10 µM	–	> 10 µM	–	> 10 µM	–	> 10 µM	–	> 10 µM	–	> 10 µM	–	> 10 µM	–	> 10 µM	–	> 10 µM
N=c1c2c(-c3ccccc3)c(-c3ccccc3)n(Cc3ccccc3)c2ncn1C1CCC(O)CC1 (stereo not given)	0.511 µM	1.85 µM	0.417 µM	2.23 µM	0.517 µM	16.8 µM	0.327 µM	11.1 µM	0.389 µM	1.68 µM	0.624 µM	2.22 µM	0.321 µM	9.25 µM	0.351 µM	15.3 µM	1.19 µM	3.66 µM	0.92 µM	8.85 µM
